One block for each compound: values may come before it.
Experiments:
[1] = Dissociation constant, pKa was determined; assay type: physicochemical
[2] = molecular target: T1, Gastrin/cholecystokinin type B receptor (Mus musculus, UniProt P56481); test: The concentration (nM) producing half-maximal inhibition of specific binding of [1251] Bolton Hunter CCK-8 to CCK receptors in the mouse cerebral cortex (CCK-B);value ranges from 8.6 to 32; assay type: tissue-based
T1 sequence (P56481 whole entry): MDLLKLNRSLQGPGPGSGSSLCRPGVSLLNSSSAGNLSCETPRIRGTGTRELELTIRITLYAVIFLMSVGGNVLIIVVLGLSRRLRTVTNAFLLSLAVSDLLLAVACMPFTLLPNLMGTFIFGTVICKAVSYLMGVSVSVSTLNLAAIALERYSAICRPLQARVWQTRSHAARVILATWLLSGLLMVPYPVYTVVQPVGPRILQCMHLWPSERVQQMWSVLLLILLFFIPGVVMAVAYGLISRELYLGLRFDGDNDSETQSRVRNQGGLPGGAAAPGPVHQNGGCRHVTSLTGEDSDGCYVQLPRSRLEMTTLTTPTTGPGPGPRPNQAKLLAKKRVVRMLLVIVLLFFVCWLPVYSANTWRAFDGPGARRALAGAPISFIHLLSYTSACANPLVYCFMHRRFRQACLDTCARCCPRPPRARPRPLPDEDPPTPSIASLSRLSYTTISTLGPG

[3] = molecular target: T2, Cholecystokinin receptor type A (Rattus norvegicus, UniProt P30551); test: The concentration (nM) producing half-maximal inhibition of specific binding of [1251] Bolton Hunter CCK-8 to CCK receptors in the rat pancreas (CCK-A);value ranges from 900 to 1900
T2 sequence (P30551 whole entry): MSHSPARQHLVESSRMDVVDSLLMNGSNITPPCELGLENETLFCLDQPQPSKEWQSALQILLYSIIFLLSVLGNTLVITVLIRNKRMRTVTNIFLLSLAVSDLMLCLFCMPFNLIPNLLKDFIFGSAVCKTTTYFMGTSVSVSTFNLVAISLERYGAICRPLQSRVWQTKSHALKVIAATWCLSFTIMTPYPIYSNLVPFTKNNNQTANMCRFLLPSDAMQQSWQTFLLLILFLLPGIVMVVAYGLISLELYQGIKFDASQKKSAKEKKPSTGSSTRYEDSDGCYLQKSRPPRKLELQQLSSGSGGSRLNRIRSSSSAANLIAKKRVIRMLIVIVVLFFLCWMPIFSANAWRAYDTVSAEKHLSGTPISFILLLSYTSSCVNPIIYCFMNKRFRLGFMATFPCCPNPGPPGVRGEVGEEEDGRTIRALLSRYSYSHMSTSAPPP

[4] = molecular target: T1, Gastrin/cholecystokinin type B receptor; test: The concentration (nM) producing half-maximal inhibition of specific binding of [1251] Bolton Hunter CCK-8 to CCK receptors in the mouse cerebral cortex (CCK-B);value ranges from 62 to 98; assay type: tissue-based
[5] = molecular target: T2, Cholecystokinin receptor type A; test: The concentration (nM) producing half-maximal inhibition of specific binding of [1251] Bolton Hunter CCK-8 to CCK receptors in the rat pancreas (CCK-A);value ranges from 620 to 770
[6] = molecular target: T1, Gastrin/cholecystokinin type B receptor; test: The concentration (nM) producing half-maximal inhibition of specific binding of [1251] Bolton Hunter CCK-8 to CCK receptors in the mouse cerebral cortex (CCK-B);value ranges from 5.3 to 7.7; assay type: tissue-based
[7] = molecular target: T2, Cholecystokinin receptor type A; test: The concentration (nM) producing half-maximal inhibition of specific binding of [1251] Bolton Hunter CCK-8 to CCK receptors in the rat pancreas (CCK-A);value ranges from 1100 to 1500
[8] = molecular target: T1, Gastrin/cholecystokinin type B receptor; test: The concentration (nM) producing half-maximal inhibition of specific binding of [1251] Bolton Hunter CCK-8 to CCK receptors in the mouse cerebral cortex (CCK-B);value ranges from 3.0 to 8.1; assay type: tissue-based
[9] = molecular target: T2, Cholecystokinin receptor type A; test: The concentration (nM) producing half-maximal inhibition of specific binding of [1251] Bolton Hunter CCK-8 to CCK receptors in the rat pancreas (CCK-A); value ranges from 1000 to 1100
[10] = Dissociation constant, pKa was determined; experiment 1; assay type: physicochemical
[11] = Dissociation constant, pKa was determined; experiment 2; assay type: physicochemical
[12] = molecular target: T1, Gastrin/cholecystokinin type B receptor; test: The concentration (nM) producing half-maximal inhibition of specific binding of [1251] Bolton Hunter CCK-8 to CCK receptors in the mouse cerebral cortex (CCK-B);value ranges from 22 to 24; assay type: tissue-based
[13] = molecular target: T2, Cholecystokinin receptor type A; test: The concentration (nM) producing half-maximal inhibition of specific binding of [1251] Bolton Hunter CCK-8 to CCK receptors in the rat pancreas (CCK-A);value ranges from 2300 to 3500
[14] = molecular target: T1, Gastrin/cholecystokinin type B receptor; test: The concentration (nM) producing half-maximal inhibition of specific binding of [1251] Bolton Hunter CCK-8 to CCK receptors in the mouse cerebral cortex (CCK-B);value ranges from 63 to 170; assay type: tissue-based
[15] = molecular target: T2, Cholecystokinin receptor type A; test: The concentration (nM) producing half-maximal inhibition of specific binding of [1251] Bolton Hunter CCK-8 to CCK receptors in the rat pancreas (CCK-A); value ranges from 680 to 970

pKa [1]: > 9.5
IC50 [2]: 14 nM
IC50 [3]: 1800 nM
SMILES: CC(Cc1c[nH]c2ccccc12)(NC(=O)OC1C2CC3CC(C2)CC1C3)C(=O)NC[C@H](NC(=O)CCC(=O)NO)c1ccccc1 (single isomer, unassigned)

pKa [1]: 5.6
SMILES: C[C@@](Cc1c[nH]c2ccccc12)(NC(=O)OC1C2CC3CC(C2)CC1C3)C(=O)NC[C@H](NC(=O)CCC(=O)O)c1ccccc1 (stereo not given in full)

pKa [1]: 7.9
IC50 [4]: 77 nM
IC50 [5]: 680 nM
SMILES: CC(Cc1c[nH]c2ccccc12)(NC(=O)OC1C2CC3CC(C2)CC1C3)C(=O)NC[C@H](NC(=O)CCNS(=O)(=O)C(F)(F)F)c1ccccc1 (single isomer, unassigned)

pKa [1]: 5.2
IC50 [6]: 6.3 nM
IC50 [7]: 1200 nM
SMILES: CC(Cc1c[nH]c2ccccc12)(NC(=O)OC1C2CC3CC(C2)CC1C3)C(=O)NC[C@H](NC(=O)CCC(=O)Nc1nn[nH]n1)c1ccccc1 (single isomer, unassigned)

pKa [1]: 5.4
IC50 [8]: 5.6 nM
IC50 [9]: 1070 nM
SMILES: CC(Cc1c[nH]c2ccccc12)(NC(=O)OC1C2CC3CC(C2)CC1C3)C(=O)NC[C@H](NC(=O)CCc1nnn[nH]1)c1ccccc1 (single isomer, unassigned)

pKa [10]: 3.4
pKa [11]: 7.8
IC50 [12]: 23 nM
IC50 [13]: 2700 nM
SMILES: CC(Cc1c[nH]c2ccccc12)(NC(=O)OC1C2CC3CC(C2)CC1C3)C(=O)NC[C@H](NC(=O)CCP(=O)(O)O)c1ccccc1 (single isomer, unassigned)

pKa [1]: > 9.5
IC50 [14]: 89 nM
IC50 [15]: 800 nM
SMILES: CC(Cc1c[nH]c2ccccc12)(NC(=O)OC1C2CC3CC(C2)CC1C3)C(=O)NC[C@H](NC(=O)CCNC(=O)C(F)(F)F)c1ccccc1 (single isomer, unassigned)
